Source: the CheMixHub drug solubility set

Experiment: xn = mol fraction of the nth substance listed, in the solute-free solvent

Cc1c(Br)c(=O)n(C2CCCC2)c2nc(Cl)ncc12 + C1CCOC1 + CCO
solubility (g/100 g solution)
Conditions | 278.15 K | 283.15 K | 288.15 K | 293.15 K | 298.15 K | 303.15 K | 308.15 K | 313.15 K | 318.15 K | 323.15 K
x2 = 0.1 | 0.59 | 0.723 | 0.88 | 1.07 | 1.28 | 1.53 | 1.82 | 2.14 | 2.52 | 2.94
x2 = 0.2 | 1.06 | 1.25 | 1.51 | 1.81 | 2.16 | 2.56 | 3.01 | 3.52 | 4.1 | 4.74
x2 = 0.3 | 1.49 | 1.8 | 2.16 | 2.58 | 3.05 | 3.6 | 4.21 | 4.9 | 5.66 | 6.51
x2 = 0.4 | 1.9 | 2.29 | 2.74 | 3.26 | 3.84 | 4.51 | 5.26 | 6.1 | 7.04 | 8.07
x2 = 0.5 | 2.25 | 2.71 | 3.34 | 3.83 | 4.52 | 5.29 | 6.16 | 7.13 | 8.2 | 9.38
x2 = 0.6 | 2.56 | 3.07 | 3.67 | 4.35 | 5.12 | 5.99 | 6.96 | 8.04 | 9.23 | 10.5
x2 = 0.7 | 2.85 | 3.42 | 4.08 | 4.83 | 5.68 | 6.64 | 7.71 | 8.9 | 10.2 | 11.7
x2 = 0.8 | 3.12 | 3.75 | 4.47 | 5.29 | 6.22 | 7.27 | 8.44 | 9.73 | 11.2 | 12.7
x2 = 0.9 | 3.34 | 4.01 | 4.79 | 5.67 | 6.67 | 7.79 | 9.04 | 10.4 | 11.9 | 13.6

C#CC1(O)C=CC2C3CCC4=CC(=O)CCC4C3CCC21CC (centres undefined) + O + CO
288.15 K
Conditions | solubility (g/100 g solution)
x2 = 0.165 | 4.27
x2 = 0.3077 | 3.7
x2 = 0.4325 | 1.93
x2 = 0.5424 | 1.49
x2 = 0.6401 | 1
x2 = 0.8058 | 0.438
x2 = 0.8767 | 0.371
x2 = 0.9412 | 0.371

C#CC1(O)CCC2C3CCC4=CC(=O)CCC4C3C(=C)CC21CC (centres undefined) + CO + O
solubility (g/100 g solution)
Conditions | x2 = 0.05881 | x2 = 0.1233 | x2 = 0.1942 | x2 = 0.2727 | x2 = 0.3599 | x2 = 0.4576 | x2 = 0.5675 | x2 = 0.6923 | x2 = 0.835
273.15 K | 0.987 | 1.09 | 1.19 | 1.31 | 1.32 | 1.44 | 1.45 | 1.62 | 3.44
278.15 K | 1.1 | 1.19 | 1.31 | 1.46 | 1.47 | 1.6 | 1.7 | 1.9 | 3.82
283.15 K | 1.2 | 1.28 | 1.43 | 1.59 | 1.61 | 1.74 | 1.95 | 2.15 | 4.22
288.15 K | 1.31 | 1.39 | 1.56 | 1.75 | 1.77 | 1.88 | 2.21 | 2.46 | 4.66
293.15 K | 1.42 | 1.49 | 1.68 | 1.91 | 1.92 | 2.03 | 2.49 | 2.8 | 5.13
298.15 K | 1.52 | 1.59 | 1.8 | 2.05 | 2.08 | 2.17 | 2.74 | 3.18 | 5.62
303.15 K | 1.62 | 1.68 | 1.91 | 2.21 | 2.23 | 2.3 | 3.01 | 3.61 | 6.16
308.15 K | 1.71 | 1.76 | 2.01 | 2.35 | 2.38 | 2.43 | 3.28 | 4.07 | 6.71
313.15 K | 1.79 | 1.84 | 2.12 | 2.48 | 2.51 | 2.54 | 3.54 | 4.52 | 7.27
318.15 K | 1.86 | 1.92 | 2.21 | 2.62 | 2.66 | 2.64 | 3.78 | 5.05 | 7.92
323.15 K | 1.93 | 1.98 | 2.29 | 2.73 | 2.78 | 2.72 | 4 | 5.59 | 8.54

CCCSc1ccc2[nH]c(NC(=O)OC)nc2c1 + CCO + O
solubility (g/100 g solution)
Conditions | x2 = 0.0416 | x2 = 0.0891 | x2 = 0.1435 | x2 = 0.2068 | x2 = 0.2811 | x2 = 0.3697 | x2 = 0.4771 | x2 = 0.61 | x2 = 0.7787
288.95 K | 0.00065 | 0.00225 | 0.0048 | 0.00531 | 0.0142 | 0.031 | 0.0476 | 0.0657 | 0.0669
293.15 K | 0.00113 | 0.00279 | 0.0063 | 0.00878 | 0.0211 | 0.0396 | 0.0538 | 0.0706 | 0.0729
297.15 K | 0.00141 | 0.0033 | 0.00736 | 0.0137 | 0.025 | 0.0476 | 0.0643 | 0.0856 | 0.0933
301.25 K | 0.00181 | 0.00417 | 0.00932 | 0.0172 | 0.0324 | 0.0565 | 0.0753 | 0.0966 | 0.11
305.15 K | 0.00257 | 0.00518 | 0.0114 | 0.0207 | 0.04 | 0.0682 | 0.0957 | 0.124 | 0.137
309.15 K | 0.00328 | 0.00624 | 0.0127 | 0.025 | 0.048 | 0.0834 | 0.118 | 0.162 | 0.169
313.05 K | 0.00395 | 0.00729 | 0.0156 | 0.0318 | 0.0594 | 0.104 | 0.149 | 0.204 | 0.208
317.25 K | 0.00594 | 0.00852 | 0.0188 | 0.0386 | 0.0732 | 0.12 | 0.185 | 0.242 | 0.25

c1ccc(-c2ccc(C(c3ccccc3)n3ccnc3)cc2)cc1 (centres undefined) + CC(C)O + O
solubility (g/100 g solution)
Conditions | 278.15 K | 283.15 K | 288.15 K | 293.15 K | 298.15 K | 303.15 K | 308.15 K | 313.15 K | 318.15 K
x2 = 0.03225 | 0.0342 | 0.0473 | 0.0644 | 0.0851 | 0.103 | 0.142 | 0.189 | 0.234 | 0.294
x2 = 0.06974 | 0.0839 | 0.115 | 0.155 | 0.204 | 0.247 | 0.338 | 0.444 | 0.549 | 0.687
x2 = 0.1139 | 0.17 | 0.232 | 0.31 | 0.408 | 0.497 | 0.673 | 0.876 | 1.09 | 1.35
x2 = 0.1666 | 0.29 | 0.394 | 0.525 | 0.692 | 0.849 | 1.14 | 1.48 | 1.84 | 2.29
x2 = 0.2307 | 0.426 | 0.578 | 0.767 | 1.05 | 1.37 | 1.77 | 2.24 | 2.81 | 3.38
x2 = 0.3103 | 0.547 | 0.744 | 0.987 | 1.32 | 1.65 | 2.2 | 2.83 | 3.56 | 4.43
x2 = 0.4117 | 0.629 | 0.928 | 1.26 | 1.69 | 2.19 | 2.73 | 3.34 | 4.23 | 5.29
x2 = 0.5454 | 0.662 | 0.935 | 1.36 | 1.8 | 2.39 | 2.97 | 3.63 | 4.64 | 5.84
x2 = 0.7297 | 0.651 | 0.899 | 1.25 | 1.75 | 2.25 | 2.98 | 3.86 | 4.96 | 6.12

CCOc1ccccc1C(N)=O + CCO + CC#N
solubility (g/100 g solution)
Conditions | x2 = 0.1 | x2 = 0.2 | x2 = 0.3 | x2 = 0.4 | x2 = 0.5 | x2 = 0.6 | x2 = 0.7 | x2 = 0.8 | x2 = 0.9
293.15 K | 3.67 | 4.64 | 5.5 | 6.13 | 6.78 | 6.6 | 6.09 | 5.58 | 4.95
298.15 K | 4.87 | 5.98 | 7.15 | 7.99 | 8.56 | 8.45 | 7.95 | 7.21 | 6.29
303.15 K | 6.28 | 7.75 | 8.84 | 9.86 | 10.4 | 10.1 | 9.58 | 8.65 | 7.54
308.15 K | 8.19 | 9.9 | 11.3 | 12.4 | 13.1 | 13 | 12.2 | 11 | 9.7
313.15 K | 10.5 | 12.4 | 14.4 | 15.7 | 16.2 | 16 | 15 | 13.7 | 11.8
318.15 K | 13.3 | 15.6 | 17.7 | 19.2 | 19.9 | 19.5 | 18.3 | 16.5 | 14.7
